Experimental data from patent US20170318812A1, “Plant and Crop Growth Regulating/Biostimulant Formulations and Methods of Use” (Arysta Lifescience North America, LLC, priority 2014, published 2017).
Values joined by “and” are separate entries in the source; they are usually repeats but may differ in a detail not shown here. Equal values may be shown once.

Key:
[1] = system: PHSVX Phaseolus vulgaris (Garden bean); experiment: Ipfencarbazone biostimulant effect, early post emergence foliar application, greenhouse pots, plant height: dry bean; format: in vivo; details: PHSVX PEROLA
From the text: (§1) The original objective of this Example was to evaluate the herbicidal effect of ipfencarbazone when applied as a post emergent treatment to a range of selected crops and weeds. Unexpectedly, crop plant growth stimulation was observed. The actual species of weeds and crops are listed in the summary data tabulated below and in FIGS. 1-13. By convention each plant species has a Bayer code (5-letter name) with the scientific name for the plant referenced in FIGS. 1-13. In each Figure, each tray contains the same configuration of weeds and/or crops. In each Figure there is one replication of each treatment (six treatments in total). The top three photographs in each Figure show the Bayer Codes and bottom three photographs are aligned with the top three facilitating viewing of the same plant species. Throughout the Examples various abbreviations as conventional shorthand notation and will be appreciated by those skilled in the art. Some exemplary abbreviations include, “CV”=Co-efficient of Variation,” “LSD”=Least Significant Difference” (G/L (gram per L) AND GA/L (gram of active ingredient per L); “SC”=suspension concentrate formulation. The diluent in all treatments was water. By convention factors that are identical in all treatments (e.g. diluent and surfactant) are not listed in each treatment.
(§2) Methods: The indicated size pots (see Tables below) are filled with a specific soil, the soil properties being indicated below. The referenced crops and weeds are planted by hand in each pot. […] The experiments include six treatments each replicated three times on each crop/weed species. At a specific time after emergence each crop and weed species was treated with ipfencarbazone plus a non-ionic surfactant (NIS). In the present Example, the surfactant employed was ENERGIC™ (non-ionic surfactant). The application timing is indicated in each of the Tables (1 or 2 leaf stage) below. Ipfencarbazone plus surfactant was diluted in water and applied at a rate equivalent to about 250 L/ha. Ipfencarbazone was applied using a track sprayer. After treatment, the pots were randomized in a greenhouse. At each assessment (indicated by “days after treatment” or DAT) the height of each plant was measured. The letters next to each mean indicate the level of statistical significance.
(§3) Replications: 3, Untreated treatments: 1, Design: Randomized Complete Block (RCB), Treatment units: Treated ‘Plot’ experimental unit size, Dry Form. Unit: %, Treated ‘Plot’ experimental unit size Width: 1 meter, Treated ‘Plot’ experimental unit size Length: 1.4 meters, Application volume: 250 L/ha, Mix size: 0.15 liters, […]

[2] = system: BRADC Brachiaria decumbens (Surinam grass); experiment: Ipfencarbazone biostimulant effect, early post emergence foliar application, greenhouse pots, plant height: Surinam grass; format: in vivo; details: for HEIGHT, percent of untreated check (APoC) / HEIGHT, treatment mean: BRADC BASILISK; for Plant HEIGHT, Mean / Plant HEIGHT, single plots: Surinam grass BASILISK
From the text: as §1, §2, §3

[3] = 15 DA-A, 62.5 g ai/ha + Energic NIS 0.2 % v/v
[4] = 15 DA-A, 125 g ai/ha + Energic NIS 0.2 % v/v
[5] = 15 DA-A, 500 g ai/ha + Energic NIS 0.2 % v/v
[6] = 28 DA-A, 62.5 g ai/ha + Energic NIS 0.2 % v/v
[7] = 28 DA-A, 125 g ai/ha + Energic NIS 0.2 % v/v
[8] = 28 DA-A, 250 g ai/ha + Energic NIS 0.2 % v/v
[9] = 28 DA-A, 500 g ai/ha + Energic NIS 0.2 % v/v

With CC(C)N(C(=O)n1cnn(-c2ccc(Cl)cc2Cl)c1=O)c1ccc(F)cc1F [ARY-0572-001, ipfencarbazone] the “HEIGHT, percent of untreated check (APoC)” value (from here on “HEIGHT, percent”) ([1]; 62.5 g ai/ha, 15 DA-A) was “(105.6%)”, the “HEIGHT, treatment mean” value ([1]; 62.5 g ai/ha, 15 DA-A) was 10.4 a cm and 10.4 cm and the “HEIGHT, single plots (replicates)” value ([1]; 62.5 g ai/ha, 15 DA-A, plots 102, 205, 302) was 11.7 cm (2×) and 8.0 cm. The “HEIGHT, percent” value ([1]; 62.5 g ai/ha, 28 DA-A, AS square root transformation) was “(152.2%)”, the “HEIGHT, treatment mean” value ([1]; 62.5 g ai/ha, 28 DA-A, AS square root transformation (t)) was 19.8 a cm and 19.8t cm and the “HEIGHT, single plots (replicates)” value ([1]; 62.5 g ai/ha, 28 DA-A, plots 102, 205, 302) was 24.0 cm and 17.3 cm and 19.7 cm. For the same compound, the “HEIGHT, percent” value ([1]; 125 g ai/ha, 15 DA-A) was “(75.8%)”, the “HEIGHT, treatment mean” value ([1]; 125 g ai/ha, 15 DA-A) was 7.5 ab cm and 7.5 cm and the “HEIGHT, single plots (replicates)” value ([1]; 125 g ai/ha, 15 DA-A, plots 103, 206, 305) was 0.0 cm and 10.7 cm and 11.8 cm. The “HEIGHT, percent” value ([1]; 125 g ai/ha, 28 DA-A, AS square root transformation) was “(91.8%)”, the “HEIGHT, treatment mean” value ([1]; 125 g ai/ha, 28 DA-A, AS square root transformation (t)) was 12.0 a cm and 12.0t cm and the “HEIGHT, single plots (replicates)” value ([1]; 125 g ai/ha, 28 DA-A, plots 103, 206, 305) was 4.3 cm and 16.0 cm and 20.3 cm. For the same compound, the “HEIGHT, percent” value ([1]; 250 g ai/ha, 15 DA-A) was “(5.6%)”, the “HEIGHT, treatment mean” value ([1]; 250 g ai/ha, 15 DA-A) was 0.6 c cm and 0.6 cm and the “HEIGHT, single plots (replicates)” value ([1]; 250 g ai/ha, 15 DA-A, plots 104, 201, 306) was 0.0 cm (2×) and 1.7 cm. For the same compound, the “HEIGHT, percent” value ([1]; 250 g ai/ha, 28 DA-A, AS square root transformation) was “(2.5%)”, the “HEIGHT, treatment mean” value ([1]; 250 g ai/ha, 28 DA-A, AS square root transformation (t)) was 0.3 a cm and 0.3t cm and the “HEIGHT, single plots (replicates)” value ([1]; 250 g ai/ha, 28 DA-A, plots 104, 201, 306) was 0.0 cm (2×) and 2.0 cm. For the same compound, the “HEIGHT, percent” value ([1]; 500 g ai/ha, 15 DA-A) was “(6.7%)”, the “HEIGHT, treatment mean” value ([1]; 500 g ai/ha, 15 DA-A) was 0.7 c cm and 0.7 cm and the “HEIGHT, single plots (replicates)” value ([1]; 500 g ai/ha, 15 DA-A, plots 105, 202, 301) was 2.0 cm and 0.0 cm (2×). The “HEIGHT, percent” value ([1]; 500 g ai/ha, 28 DA-A, AS square root transformation) was “(155.1%)”, the “HEIGHT, treatment mean” value ([1]; 500 g ai/ha, 28 DA-A, AS square root transformation (t)) was 20.2 a cm and 20.2t cm and the “HEIGHT, single plots (replicates)” value ([1]; 500 g ai/ha, 28 DA-A, plots 105, 202, 301) was 73.0 cm and 0.0 cm and 25.0 cm. For the same compound, the “HEIGHT, percent” value ([1]; 1000 g ai/ha, 15 DA-A) was “(59.0%)”, the “HEIGHT, treatment mean” value ([1]; 1000 g ai/ha, 15 DA-A) was 5.8 b cm and 5.8 cm and the “HEIGHT, single plots (replicates)” value ([1]; 1000 g ai/ha, 15 DA-A, plots 106, 203, 304) was 5.0 cm and 6.7 cm and 5.8 cm. The “HEIGHT, percent” value ([1]; 1000 g ai/ha, 28 DA-A, AS square root transformation) was “(51.7%)”, the “HEIGHT, treatment mean” value ([1]; 1000 g ai/ha, 28 DA-A, AS square root transformation (t)) was 6.7 a cm and 6.7t cm and the “HEIGHT, single plots (replicates)” value ([1]; 1000 g ai/ha, 28 DA-A, plots 106, 203, 304) was 6.3 cm and 7.3 cm and 6.7 cm. The “HEIGHT, percent” value ([2]; 62.5 g ai/ha, 15 DA-A) was “(167.8%)”, the “HEIGHT, treatment mean” value ([2]; 62.5 g ai/ha, 15 DA-A) was 33.8 a cm and the “HEIGHT, percent” value ([2]; 62.5 g ai/ha, 28 DA-A) was “(164.1%)”. For the same compound, the “HEIGHT, treatment mean” value ([2]; 62.5 g ai/ha, 28 DA-A) was 55.4 bc cm, the “HEIGHT, percent” value ([2]; 125 g ai/ha, 15 DA-A) was “(139.1%)” and the “HEIGHT, treatment mean” value ([2]; 125 g ai/ha, 15 DA-A) was 28.1 ab cm. For the same compound, the “HEIGHT, percent” value ([2]; 125 g ai/ha, 28 DA-A) was “(146.7%)”, the “HEIGHT, treatment mean” value ([2]; 125 g ai/ha, 28 DA-A) was 49.6 cd cm and the “HEIGHT, percent” value ([2]; 250 g ai/ha, 15 DA-A) was “(141.3%)”. The “HEIGHT, treatment mean” value ([2]; 250 g ai/ha, 15 DA-A) was 28.5 ab cm, the “HEIGHT, percent” value ([2]; 250 g ai/ha, 28 DA-A) was “(233.6%)” and the “HEIGHT, treatment mean” value ([2]; 250 g ai/ha, 28 DA-A) was 78.9 a cm. The “HEIGHT, percent” value ([2]; 500 g ai/ha, 15 DA-A) was “(93.1%)”, the “HEIGHT, treatment mean” value ([2]; 500 g ai/ha, 15 DA-A) was 18.8 bc cm and the “HEIGHT, percent” value ([2]; 500 g ai/ha, 28 DA-A) was “(210.5%)”. For the same compound, the “HEIGHT, treatment mean” value ([2]; 500 g ai/ha, 28 DA-A) was 71.1 ab cm, the “HEIGHT, percent” value ([2]; 1000 g ai/ha, 15 DA-A) was “(54.0%)” and the “HEIGHT, treatment mean” value ([2]; 1000 g ai/ha, 15 DA-A) was 10.9 c cm. For the same compound, the “HEIGHT, percent” value ([2]; 1000 g ai/ha, 28 DA-A) was “(74.0%)”, the “HEIGHT, treatment mean” value ([2]; 1000 g ai/ha, 28 DA-A) was 25.0 e cm and the “Plant HEIGHT, Mean” value [2, 3] was 33.8 cm. The “Plant HEIGHT, single plots” value [2, 3] was 26.8 cm and 44.7 cm and 30.0 cm, the “Plant HEIGHT, Mean” value [2, 4] was 28.1 cm and the “Plant HEIGHT, single plots” value [2, 4] was 27.8 cm and 23.7 cm and 32.7 cm. The “Plant HEIGHT, Mean” value ([2]; 15 DA-A, 250 g ai/ha + Energic NIS 0.2 % v/v) was 28.5 cm, the “Plant HEIGHT, Mean” value [2, 5] was 18.8 cm and the “Plant HEIGHT, single plots” value [2, 5] was 21.3 cm and 13.7 cm. The “Plant HEIGHT, Mean” value ([2]; 15 DA-A, 1000 g ai/ha + Energic NIS 0.2 % v/v) was 10.9 cm, the “Plant HEIGHT, Mean” value [2, 6] was 55.4 cm and the “Plant HEIGHT, single plots” value [2, 6] was 48.3 cm and 76.0 cm and 42.0 cm. The “Plant HEIGHT, Mean” value [2, 7] was 49.6 cm, the “Plant HEIGHT, single plots” value [2, 7] was 53.0 cm and 44.7 cm and 51.0 cm and the “Plant HEIGHT, Mean” value [2, 8] was 78.9 cm. The “Plant HEIGHT, single plots” value [2, 8] was 89.7 cm and 91.7 cm and 55.3 cm, the “Plant HEIGHT, Mean” value [2, 9] was 71.1 cm and the “Plant HEIGHT, single plots” value [2, 9] was 67.3 cm and 77.0 cm and 69.0 cm. The “Plant HEIGHT, Mean” value ([2]; 28 DA-A, 1000 g ai/ha + Energic NIS 0.2 % v/v) was 25.0 cm.
